Several values for one entry are separate records, joined by “and”; a condition that tells them apart may be missing. Equal values may be shown once. Marks after values point to notes of the source that are not given here. Non-standard residues stand in square brackets, D forms with d. Residues, ends and D or L forms follow the SMILES beside them. *: point of attachment. Asu = N[C@@H](CCCCCC(=O)O)C(=O)O; NHOH = ON*
Experiments:
HDAC1 [1] = biological target: T1, HDAC1 (Homo sapiens, UniProt Q13547); assay: Recombinant HDAC µSPOT microarray binding assay;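 further: slides with spotted peptides incubated with six HDAC concentrations in HEPES buffer pH 7.4, spot intensities fitted by four-parameter logistic, EC50 as enzyme concentration giving half-maximal binding signal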
T1 construct: HDAC1 (full length, C-terminal His tag, C-terminal FLAG tag, BPS Bioscience, cat. #: 50051); FLAG (C); purchased BPS Bioscience 50051
T1 sequence (Q13547 whole entry): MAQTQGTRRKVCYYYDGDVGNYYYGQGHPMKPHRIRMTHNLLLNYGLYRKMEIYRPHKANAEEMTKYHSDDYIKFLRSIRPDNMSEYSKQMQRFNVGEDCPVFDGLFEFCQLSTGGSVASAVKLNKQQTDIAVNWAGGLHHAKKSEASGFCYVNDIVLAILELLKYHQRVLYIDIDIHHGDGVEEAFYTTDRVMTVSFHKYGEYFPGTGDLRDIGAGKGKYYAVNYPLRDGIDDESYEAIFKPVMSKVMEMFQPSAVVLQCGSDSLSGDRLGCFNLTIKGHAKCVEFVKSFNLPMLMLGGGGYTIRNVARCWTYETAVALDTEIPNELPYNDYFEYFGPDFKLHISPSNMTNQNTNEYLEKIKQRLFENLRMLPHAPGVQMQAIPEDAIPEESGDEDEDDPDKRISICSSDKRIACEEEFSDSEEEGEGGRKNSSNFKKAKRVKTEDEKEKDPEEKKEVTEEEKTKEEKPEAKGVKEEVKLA
Procedure: (§1) Experiments were performed twice, data were obtained with Array Analyze software (Active Motif), and data analysis and representation were performed with the GraphPad Prism 7 software. Outliers were curated manually and data were fitted to nonlinear regression [log(agonist) vs. response—variable slope (four parameters)]. […] Non-sigmoidal curves were denoted as not determined (N.D.) The pEC50 values were determined as the concentration of HDAC enzyme required for half-maximal binding signal.

HDAC1 [2] = biological target: T1, HDAC1; assay: HDAC inhibition assay (fluorogenic, Ac-Leu-Gly-Lys(Ac)-AMC); type: biochemical; conditions: for HDAC1 dose-response data (relative enzyme activity), Fig. 6 + S. Fig. 10: duplicate columns
HDAC8 = biological target: T2, HDAC8 (Homo sapiens, UniProt Q9BY41); assay: Recombinant HDAC µSPOT microarray binding assay;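 further: peptide µSPOT slides incubated with varying HDAC enzyme concentrations, imaged signal intensity fitted by four-parameter variable-slope regression, EC50 is enzyme concentration giving half-maximal binding, pH 7.4 HEPES buffer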
T2 construct: HDAC8 (full length, C-terminal His tag, BPS Bioscience, cat. #: 50008); purchased BPS Bioscience 50008
T2 sequence (Q9BY41 1-377): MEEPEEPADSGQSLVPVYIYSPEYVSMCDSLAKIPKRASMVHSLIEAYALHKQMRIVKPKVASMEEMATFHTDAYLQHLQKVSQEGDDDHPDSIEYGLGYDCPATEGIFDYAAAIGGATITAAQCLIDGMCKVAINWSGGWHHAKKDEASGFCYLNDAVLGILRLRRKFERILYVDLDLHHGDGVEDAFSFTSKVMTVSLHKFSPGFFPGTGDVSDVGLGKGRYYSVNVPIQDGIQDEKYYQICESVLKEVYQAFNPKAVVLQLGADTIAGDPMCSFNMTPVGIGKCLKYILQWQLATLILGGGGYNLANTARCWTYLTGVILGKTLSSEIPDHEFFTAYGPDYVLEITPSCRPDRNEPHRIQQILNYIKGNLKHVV
Procedure: as §1

HDAC2 [3] = biological target: T3, HDAC2 (Homo sapiens, UniProt Q92769); assay: HDAC inhibition assay (fluorogenic, Ac-Leu-Gly-Lys(Ac)-AMC); type: biochemical; conditions: for HDAC2 dose-response data (relative enzyme activity), Fig. 6 + S. Fig. 10: duplicate columns
T3 construct: HDAC2 (full length, C-terminal His tag, BPS Bioscience, cat. #: 50002); purchased BPS Bioscience 50002
T3 sequence (Q92769 whole entry): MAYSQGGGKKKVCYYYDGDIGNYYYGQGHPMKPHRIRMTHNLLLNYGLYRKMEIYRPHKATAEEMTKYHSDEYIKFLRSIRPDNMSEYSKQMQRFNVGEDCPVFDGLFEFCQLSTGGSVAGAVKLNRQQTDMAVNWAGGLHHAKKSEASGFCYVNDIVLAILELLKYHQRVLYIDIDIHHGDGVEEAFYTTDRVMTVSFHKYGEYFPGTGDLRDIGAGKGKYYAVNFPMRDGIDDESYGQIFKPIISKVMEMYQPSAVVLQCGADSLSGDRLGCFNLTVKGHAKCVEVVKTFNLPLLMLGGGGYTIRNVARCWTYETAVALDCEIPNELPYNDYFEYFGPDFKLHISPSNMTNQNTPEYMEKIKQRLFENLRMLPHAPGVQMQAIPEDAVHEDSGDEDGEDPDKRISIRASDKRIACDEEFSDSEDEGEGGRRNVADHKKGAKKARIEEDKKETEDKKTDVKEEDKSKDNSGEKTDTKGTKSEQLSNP

HDAC2 [4] = biological target: T3, HDAC2; assay: Recombinant HDAC µSPOT microarray binding assay;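 further: Cellulose-bound peptide spots on slides incubated with six HDAC enzyme concentrations, binding intensity read, four-parameter variable-slope fit, EC50 is enzyme concentration giving half-maximal binding, in HEPES buffer pH 7.4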
HDAC3/NCoR2 = biological target: T4, HDAC3/NCoR2 (Homo sapiens, UniProt O15379); assay: HDAC inhibition assay (fluorogenic, Ac-Leu-Gly-Lys(Ac)-AMC); type: biochemical; conditions: for HDAC3 dose-response data (relative enzyme activity), Fig. 6 + S. Fig. 10: duplicate columns
T4 construct: HDAC3/NCoR2 (full length, C-terminal His tag, NCoR2 N-terminal GST tag); purchased BPS Bioscience 50003
T4 sequence (O15379 whole entry): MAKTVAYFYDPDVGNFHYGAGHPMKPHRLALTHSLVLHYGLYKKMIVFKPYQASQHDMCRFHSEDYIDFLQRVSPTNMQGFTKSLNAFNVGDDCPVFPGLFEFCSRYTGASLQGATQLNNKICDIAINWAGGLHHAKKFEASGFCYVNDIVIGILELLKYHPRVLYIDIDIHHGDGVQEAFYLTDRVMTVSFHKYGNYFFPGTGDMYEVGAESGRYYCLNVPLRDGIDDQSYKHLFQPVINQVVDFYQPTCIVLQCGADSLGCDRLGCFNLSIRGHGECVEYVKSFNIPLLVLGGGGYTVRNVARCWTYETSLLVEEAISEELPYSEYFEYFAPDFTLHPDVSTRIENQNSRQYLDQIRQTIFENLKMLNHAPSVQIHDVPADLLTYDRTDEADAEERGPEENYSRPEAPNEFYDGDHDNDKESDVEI
T4 sequence (Q9Y618 389-480 partner limits assumed): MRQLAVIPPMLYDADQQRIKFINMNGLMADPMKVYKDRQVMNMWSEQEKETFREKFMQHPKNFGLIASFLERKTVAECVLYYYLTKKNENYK

[5] = log[inhibitor(M)] -10,5850266520292*, whole line marked with asterisks

Compound: CC[C@H](C)[C@H](NC(=O)[C@@H](NC(=O)[C@H](CO)NC(=O)[C@H](CCCNC(=N)N)NC(=O)[C@H](CCCCCC(=O)NO)NC(=O)[C@H](CC(N)=O)NC(=O)[C@H](Cc1ccc(O)cc1)NC(=O)[C@H](Cc1c[nH]cn1)NC(=O)[C@H](C)NC(=O)[C@H](CC(C)C)NC(=O)[C@H](CCCNC(=N)N)NC(=O)[C@H](CO)NC(=O)[C@H](C)NC(=O)[C@H](CCC(=O)O)NC(C)=O)[C@@H](C)O)C(=O)N[C@H](C(=O)N[C@@H](CO)C(=O)N[C@@H](Cc1c[nH]c2ccccc12)C(N)=O)[C@@H](C)O [11a] (Ac-EASRLAHYN[Asu](NHOH)RSTITSW-NH2)
- EC50 (HDAC1 [1]): > 25.1 nM
- Ki (HDAC1 [2]): 13.1 ± 0.1 nM
- HDAC1 dose-response data (relative enzyme activity), Fig. 6 + S. Fig. 10 (HDAC1 [2]; log[inhibitor(M)] -5.69897): 4.17 and 5.0607
- HDAC1 dose-response data (relative enzyme activity), Fig. 6 + S. Fig. 10 (HDAC1 [2]; log[inhibitor(M)] -6.39794): 14.283 and 18.2541
- HDAC1 dose-response data (relative enzyme activity), Fig. 6 + S. Fig. 10 (HDAC1 [2]; log[inhibitor(M)] -7.09691): 37.8888 and 46.2715
- HDAC1 dose-response data (relative enzyme activity), Fig. 6 + S. Fig. 10 (HDAC1 [2]; log[inhibitor(M)] -7.79588): 70.7486 and 79.6987
- HDAC1 dose-response data (relative enzyme activity), Fig. 6 + S. Fig. 10 (HDAC1 [2]; log[inhibitor(M)] -8.49485): 87.0411 and 94.7749
- HDAC1 dose-response data (relative enzyme activity), Fig. 6 + S. Fig. 10 (HDAC1 [2]; log[inhibitor(M)] -9.19382): 97.6689 and 100.068
- HDAC1 dose-response data (relative enzyme activity), Fig. 6 + S. Fig. 10 (HDAC1 [2]; log[inhibitor(M)] -9.89279): 97.248 and 100.059
- HDAC1 dose-response data (relative enzyme activity), Fig. 6 + S. Fig. 10 (HDAC1 [2]; [5]): 97,6864843* and 100,018018*
- EC50 (HDAC8): > 25.1 nM
- HDAC2 dose-response data (relative enzyme activity), Fig. 6 + S. Fig. 10 (HDAC2 [3]; log[inhibitor(M)] -5): 1.895 and 2.051
- HDAC2 dose-response data (relative enzyme activity), Fig. 6 + S. Fig. 10 (HDAC2 [3]; log[inhibitor(M)] -5.69897): 7.362 and 7.275
- HDAC2 dose-response data (relative enzyme activity), Fig. 6 + S. Fig. 10 (HDAC2 [3]; log[inhibitor(M)] -7.79588): 79.8909 and 86.975
- HDAC2 dose-response data (relative enzyme activity), Fig. 6 + S. Fig. 10 (HDAC2 [3]; [5]): 93,4642959* and 101,701404*
- Ki (HDAC2 [3]; resynthesized peptide in solution, Cheng-Prusoff, n = 2): 13.8 ± 0.1 nM
- EC50 (HDAC2 [4]): > 25.1 nM
- Ki (HDAC3/NCoR2): 3.45 ± 0.02 nM
- HDAC3 dose-response data (relative enzyme activity), Fig. 6 + S. Fig. 10 (HDAC3/NCoR2; log[inhibitor(M)] -4.30103): 0.8032 and 0.6973
- HDAC3 dose-response data (relative enzyme activity), Fig. 6 + S. Fig. 10 (HDAC3/NCoR2; log[inhibitor(M)] -5): 0.9208 and 1.031
- HDAC3 dose-response data (relative enzyme activity), Fig. 6 + S. Fig. 10 (HDAC3/NCoR2; log[inhibitor(M)] -5.69897): 3.115 and 3.491
- HDAC3 dose-response data (relative enzyme activity), Fig. 6 + S. Fig. 10 (HDAC3/NCoR2; log[inhibitor(M)] -6.39794): 8.97 and 10.4813
- HDAC3 dose-response data (relative enzyme activity), Fig. 6 + S. Fig. 10 (HDAC3/NCoR2; log[inhibitor(M)] -7.09691): 21.4302 and 25.3963
- HDAC3 dose-response data (relative enzyme activity), Fig. 6 + S. Fig. 10 (HDAC3/NCoR2; log[inhibitor(M)] -7.79588): 44.8111 and 52.4153
- HDAC3 dose-response data (relative enzyme activity), Fig. 6 + S. Fig. 10 (HDAC3/NCoR2; log[inhibitor(M)] -8.49485): 70.9236 and 81.6314
- HDAC3 dose-response data (relative enzyme activity), Fig. 6 + S. Fig. 10 (HDAC3/NCoR2; log[inhibitor(M)] -9.19382): 91.8976 and 96.1605
